Results as given in patent US5124083A, “3-substituted and 3,3-disubstituted 4-oxoretinoic acids and their esters” (Southern Research Institute, priority 1990, dated 1992).
Where two headings read alike, the source gives them in different places.

Columns and labels:
[1] = test system: F9 Embryonal Carcinoma Cells; experiment: Induction of differentiation of F9 embryonal carcinoma cells (plasminogen activator release); assay type: cell-based; settings: Mus musculus, 96 h, by release of plasminogen activator, 4 days, read-out: Differentiation of F9 Embryonal Carcinoma Cells ED50
Method: Induction of differentiation of cancer cells is a potential mode of cancer chemoprevention. […] Elevated release of plasminogen activator by F9 cells in the presence of retinoids is a marker for differentiation. Induction of differentiation of F9 cells by several of the retinoids of this invention was evaluated, and the results are summarized in Table I (Example 24) as values of ED50. All of the tested 4-oxoretionoic acid analogues induce differentiation at low concentrations (ED50 =[…] -10^-10 molar) and, therefore, are very effective inducers of differentiation of mouse F9 embryonal carcinoma cells. […] Under the conditions of this assay, ester derivatives might be hydrolyzed partially to the carboxylic acids.
Assay for Induction of Differentiation of Cancer Cells to Normal Cells
Evaluation of the differentiation potential of 4-oxoretinoids was carried out with an embryonal carcinoma cell line, F9. Elevation of plasminogen activator release by F9 cells in the presence of retinoids is a marker for inducing differentiation into parietal endoderm (Strickland and Mahdavi, loc. cit.; Strickland and Sawey, loc. cit.). F9 cells were grown at a density of 1×10^5 cells/mL in the presence or absence of […], 10^-8, 10^-9, 10^-10, and 10^-11 or molar retinoids for 4 days. Aliquots (20 μL) of the harvest fluid were mixed with 0.13 μM plasminogen, 0.3 mM H-D-Val-Leu-Lys-p-nitroaniline (a synthetic substrate of plasmin), 0.1% Tween 80, and 25 μg of fibrinogen fragments in a final volume of 0.2 mL of Tris-HCl, pH 7.5. After incubation for 4 hours at 25° C., the generation of p-nitroaniline was measured by absorbance at 405 nm. The average absorbencies from duplicate experiments were plotted (semilog plots) versus concentration (molarity). The ED50 values were determined by finding the midpoint between the maximal and minimal absorbance values.
Induction of Differentiation of Cancer Cells
^a ED50 is the molar concentration of the retinoid that causes
50% induction of differentiation of the carcinoma cells as measured by th
release of plasminogen activator.

skin papillomas = experiment: Mouse antipapilloma assay (DMBA-TPA skin papillomas); assay type: in vivo; parameters: Average Number of Skin Papillomas/Mouse as % of No. of Papillomas/Mouse in the DMBA-TPA Control Group of Mice: concentration or dose not given beside the values; settings: for Average Number of Skin Papillomas/Mouse as % of No. of Papillomas/Mouse in the DMBA-TPA Control Group of Mice: DMBA-initiated, TPA-promoted mouse skin; for Reduction of papilloma formation, summary range: range over the six most active retinoids; for Papilloma formation as % of papilloma formation in untreated control mice, summary range: summary of Table IV
From the text: Application of the carcinogen DMBA to mouse skin followed by application of the tumor promoter TPA causes the formation of papillomas. Certain retinoids applied to the same area of mouse skin reduce or prevent papilloma formation (e.g. H. Mayer, W. Bollag, R. Hanni, and R. Ruegg, Experientia, Vol 34, pages 1105-1119, 1978; R. K. Boutwell and A. K. Verma, Pure and Applied Chemistry, Vol. 51, pages 857-866, 1979). The antipapilloma assay is a direct test of the capability of a retinoid to prevent tumor formation in vivo. It has been used to select retinoids for clinical development. The tested retinoids reduced papilloma formation to 27-83% of papilloma formation in untreated control mice. […] The number of papillomas in mice treated with either of these six retinoids was 27-40% of the number of papillomas on untreated mice; or, differently expressed, papilloma formation was reduced by 60-73%.
In this assay, tumors are initiated in mice by applying the carcinogen DMBA to the skin of mice and subsequently applying the promoter TPA. The method is that of Verma et al., Cancer Research, Vol. 39, pages 419-425, 1979.

[2] = test system: tracheas obtained from vitamin A-deficient hamsters; experiment: Hamster trachea organ culture assay (reversal of squamous metaplasia and keratinization); assay type: cell-based; settings: for EC50: Mesocricetus auratus, reversal of keratinization, vitamin A-deficient hamster trachea in culture, read-out: ED50, hamster trachea organ culture assay; for Activity in hamster-trachea assay compared with the retinamides of Table II: compared with retinamides in lower part of Table II
Method: Some of these 4-oxoretinoic acid analogues were evaluated in the hamster-trachea organ-culture assay described in Clamon et al., Nature, Vol. 250, pages 64-66, 1974; Sporn et al., Nature, Vol. 263, pages 110-113, 1976; and Newton et al., Cancer Res., Vol. 40, pages 3413-3425, 1980. This bioassay is specific for retinoids and assesses the capacity of retinoids to reverse keratinization in vitamin A-deficient hamster trachea in culture. Therefore, it is a measure of the capacity of a retinoid to control differentiation of epithelial cells, and "it is believed to have significant predictive value for the potential use of a new retinoid for prevention of epithelial cancer" (Newton et al., Cancer Res., Vol. 40, pages 3413-3425, 1980). (See Example 25). Also, data obtained by Newton et al., (Cancer Res., Vol. 40, pages 3413-3425, 1980) in assays of six all-trans or 13-cis retinamides are included in Table II for comparison.
Hamster Trachea Organ Culture Assay
4-Oxoretinoids were evaluated for their capacity to reverse squamous metaplasia and keratinization in organ cultures of tracheas obtained from vitamin A-deficient hamsters. The methods and procedures were those described by Sporn and co-workers (Clamon et al. and Newton et al., loc. cit.).

ornithine decarboxylase = experiment: Ornithine decarboxylase assay (reduction of TPA-induced ODC activity in mouse skin); assay type: in vivo; settings: for Ornithine Decarboxylase Activity, Average % of Control Group: TPA-induced ODC, mouse skin, nanomoles of carbon dioxide per milligram of protein per half hour; for ODC activity as % of the ODC activity in the control mice, summary range: TPA-induced, summary of Table III in text
From the text: A bioassay in vivo for activity in the prevention of carcinogen-induced cancer is based on the reduction by a retinoid of the amount of ornithine decarboxylase (ODC) induced in mouse skin by the tumor promoter 12-O-tetradecanoylphorbol 13-acetate (TPA). Verma et al. (Cancer Research, Vol. 38, pages 793-801, 1978), reported that "application of the potent tumor-promoting agent 12-O-tetradecanoylphorbol 13-acetate (TPA) to mouse skin leads to a rapid and transient induction of epidermal ornithine decarboxylase activity". They state, further, that "inhibition of this enzyme activity by retinoids may be a simple and rapid in vivo test for assessing the potential prophylactic activity of new synthetic retinoids". All of the tested 4-oxoretinoid analogues reduced TPA-induced ODC activity. The compounds of Examples 2-4, 8, 11, 17, 18, and 20-23 reduced ODC activity to 22-47% of the ODC activity in the control mice and are, therefore, very active in this assay for cancer chemopreventive activity.
Ornithine Decarboxylase Assay
Assays for the reduction by 4-oxoretinoids of ornithine decarboxylase activity induced by 12-O-tetradecanoylphorbol 13-acetate (TPA) were performed by the procedure of Verma et al., Cancer Research, Vol. 38, pages 793-801 (1978).

[3] = molar concentration causing 50% induction of differentiation

SMILES	EC50 [1, 3] [nM]	Average Number of Skin Papillomas/Mouse as % of No. of Papillomas/Mouse in the DMBA-TPA Control Group of Mice (skin papillomas) [%]	Reduction of papilloma formation, summary range (skin papillomas)	Papilloma formation as % of papilloma formation in untreated control mice, summary range (skin papillomas)	EC50 [2] [nM]	Activity in hamster-trachea assay compared with the retinamides of Table II [2]	Ornithine Decarboxylase Activity, Average % of Control Group (ornithine decarboxylase)	ODC activity as % of the ODC activity in the control mice, summary range (ornithine decarboxylase)	EC50 ([1]; average of two determinations, 50% induction of differentiation) [nM]
COC(=O)/C=C(C)/C=C/C=C(C)/C=C/C1=C(C)C(=O)C(C)(C)CC1(C)C [Example 11, Methyl 3,3-Dimethyl-4-oxoretinoate]	0.9	27	60-73%	27-40%	0.3	comparable	22 % of Control Group	22-47 % of the ODC activity in the control mice	
CC1=C(/C=C/C(C)=C/C=C/C(C)=C/C(=O)O)C(C)(C)CC(C)C1=O (centres unmarked) [Example 17, 3-Methyl-4-oxoretinoic Acid]	0.9	32	60-73%	27-40%	2		33 % of Control Group	22-47 % of the ODC activity in the control mice	
C#CCC1CC(C)(C)C(/C=C/C(C)=C/C=C/C(C)=C/C(=O)O)=C(C)C1=O (centres unmarked) [Example 20]	0.6	64			0.2	comparable	47 % of Control Group		
CCC1CC(C)(C)C(/C=C/C(C)=C/C=C/C(C)=C/C(=O)OC)=C(C)C1=O (centres unmarked) [Example 4, Methyl 3-Ethyl-4-oxoretinoate]		83					31 % of Control Group		
COC(=O)/C=C(C)/C=C/C=C(C)/C=C/C1=C(C)C(=O)C(CC=Cc2ccccc2)CC1(C)C (centres unmarked) [Example 3, Methyl 3-Cinnamyl-4-oxoretinoate]							31 % of Control Group		
CCC1CC(C)(C)C(/C=C/C(C)=C/C=C/C(C)=C/C(=O)O)=C(C)C1=O (centres unmarked) [Example 18, 3-Ethyl-4Oxoretionoic Acid]	5	57					40 % of Control Group	22-47 % of the ODC activity in the control mice	
CC1=C(/C=C/C(C)=C/C=C/C(C)=C/C(=O)O)C(C)(C)CC(CC=Cc2ccccc2)C1=O (centres unmarked) [Example 22, 3-Cinnamyl-4-oxoretinoic Acid]	3.5	39	60-73%	27-40%			23 % of Control Group		
CC1=C(/C=C/C(C)=C/C=C/C(C)=C/C(=O)O)C(C)(C)CC(Cc2ccccc2)C1=O (centres unmarked) [Example 21]	0.8				11		42 % of Control Group		
CC1=C(/C=C/C(C)=C/C=C/C(C)=C/C(=O)O)C(C)(C)CC(C)(C)C1=O [Example 23, 3.3-Dimethyl-4-Oxoretinoic Acid]		27	60-73%	27-40%			26 % of Control Group		0.23
C=CCC1CC(C)(C)C(/C=C/C(C)=C/C=C/C(C)=C/C(=O)OC)=C(C)C1=O (centres unmarked) [Example 7, Methyl 4-Oxo-3-(2-propenyl)retinoate]		42					56 % of Control Group		
C=CCC1CC(C)(C)C(/C=C/C(C)=C/C=C/C(C)=C/C(=O)O)=C(C)C1=O (centres unmarked) [Example 19, 4-Oxo-3-(2-propenyl)retinoic Acid]	0.7	47					68 % of Control Group		
COC(=O)/C=C(C)/C=C/C=C(C)/C=C/C1=C(C)C(=O)C(Cc2ccccc2)CC1(C)C (centres unmarked) [Example 9, Methyl 4-Oxo-3-(phenylmethyl)retinoate]					11		77 % of Control Group		
C#CCC1CC(C)(C)C(/C=C/C(C)=C/C=C/C(C)=C/C(=O)OC)=C(C)C1=O (centres unmarked) [Example 8, Methyl 4-Oxo-3-(2-propynyl)retinoate]	1.5	40	60-73%	27-40%			35 % of Control Group	22-47 % of the ODC activity in the control mice	
